The source made the active and inactive calls. The calls are words filed in the database; no cut-off is given here. Non-standard residues stand in square brackets, D forms with d. Residues, ends and D or L forms follow the SMILES beside them. *: point of attachment. Ahx = NCCCCCC(=O)O; NHOH = ON*
Assays:
[1] = system: Huh-7; test: Anticancer activity in human Huh-7 cells assessed as change in TP53 gene expression by KEGG analysis; type: functional, cell-based
[2] = system: HT-29; test: Antiproliferative activity against human HT-29 cells incubated for 48 hrs by CCK8 method; type: functional, cell-based; details: HT-29, 48 h
[3] = system: Huh-7; test: Induction of cell cycle arrest in human Huh-7 cells assessed as accumulation of cells at G1 phase at 20 uM incubated for 24 hrs by FACscan flow cytometer analysis (reference value: 39.68%); type: functional
[4] = system: Huh-7; test: Induction of cell cycle arrest in human Huh-7 cells assessed as accumulation of cells at sub G1 phase at 20 uM incubated for 24 hrs by FACscan flow cytometer analysis relative to control; type: functional
[5] = system: Huh-7; test: Anticancer activity in human Huh-7 cells assessed as change in BMP2 gene expression by KEGG analysis; type: functional, cell-based
[6] = system: Huh-7; test: Induction of cell cycle arrest in human Huh-7 cells assessed as accumulation of cells at S phase at 20 uM incubated for 24 hrs by FACscan flow cytometer analysis (reference value: 41.7%); type: functional
[7] = system: Huh-7; test: Induction of cell cycle arrest in human Huh-7 cells assessed as accumulation of cells at G2 phase at 20 uM incubated for 24 hrs by FACscan flow cytometer analysis (reference value: 25.74%); type: functional
[8] = system: Huh-7; test: Induction of apoptosis in human Huh-7 cells assessed as necrotic cells at 20 uM incubated for 24 hrs by FITC Annexin V/propidium iodide staining based flow cytometry analysis (reference value: 0.401%); type: functional
[9] = system: Huh-7; test: Induction of apoptosis in human Huh-7 cells assessed as early apoptotic cells at 20 uM incubated for 24 hrs by FITC Annexin V/propidium iodide staining based flow cytometry analysis (reference value: 1.85%); type: functional
[10] = system: Huh-7; test: Induction of apoptosis in human Huh-7 cells assessed as late apoptotic cells at 20 uM incubated for 24 hrs by FITC Annexin V/propidium iodide staining based flow cytometry analysis (reference value: 5.19%); type: functional
[11] = target: T1, Histone deacetylase (Homo sapiens) (UniProt Q13547+O15379+Q9UBN7+Q92769+Q9UQL6+Q8WUI4+Q9BY41+Q96DB2+P56524+Q9UKV0+Q969S8); test: Inhibition of HDAC in human Huh-7 cells assessed as increase in histone H3 acetylation at 20 to 40 uM incubated for 24 hrs by Western blot analysis; type: cell-based; details: dose 20-40 µM
[12] = system: Huh-7; test: Induction of apoptosis in human Huh-7 cells assessed as viable cells at 20 uM incubated for 24 hrs by FITC Annexin V/propidium iodide staining based flow cytometry analysis (reference value: 92.6%); type: functional; details: read-out: Activity
[13] = system: Huh-7; test: Antiproliferative activity against human Huh-7 cells incubated for 48 hrs by CCK8 method; type: functional, cell-based; details: Huh-7, 48 h
[14] = system: Huh-7; test: Anticancer activity in human Huh-7 cells assessed as change in BMP4 gene expression by KEGG analysis; type: functional, cell-based
[15] = system: Huh-7; test: Anticancer activity in human Huh-7 cells assessed as change in BCL2L11gene expression by KEGG analysis; type: functional, cell-based
[16] = system: HepG2; test: Antiproliferative activity against human HepG2 cells incubated for 48 hrs by CCK8 method; type: functional, cell-based; details: HepG2, 48 h
[17] = target: T1, Histone deacetylase (Homo sapiens); test: Inhibition of HDAC in human HepG2 cells assessed as increase in histone H3 acetylation at 20 to 40 uM incubated for 24 hrs by Western blot analysis; type: cell-based; details: dose 20-40 µM
[18] = Stability in mouse serum measured upto 24 hrs by LC/MS analysis; type: ADME, cell-free
[19] = system: Huh-7; test: Anticancer activity in human Huh-7 cells assessed as change in WNT6 gene expression by KEGG analysis; type: functional, cell-based
[20] = system: Huh-7; test: Anticancer activity in human Huh-7 cells assessed as change in JAK2 gene expression by KEGG analysis; type: functional, cell-based
[21] = target: Histone deacetylase; test: Inhibition of HDAC in human HeLa cell extracts using Boc-Lys(Ac)-AM as substrate by fluorescence based analysis
[22] = system: Huh-7; test: Induction of apoptosis in human Huh-7 cells assessed as early apoptotic cells at 10 uM incubated for 24 hrs by FITC Annexin V/propidium iodide staining based flow cytometry analysis (reference value: 1.85%); type: functional
[23] = system: Huh-7; test: Induction of cell cycle arrest in human Huh-7 cells assessed as accumulation of cells at sub G1 phase at 10 uM incubated for 24 hrs by FACscan flow cytometer analysis relative to control; type: functional
[24] = system: Huh-7; test: Induction of apoptosis in human Huh-7 cells assessed as late apoptotic cells at 10 uM incubated for 24 hrs by FITC Annexin V/propidium iodide staining based flow cytometry analysis (reference value: 5.19%); type: functional
[25] = system: Huh-7; test: Induction of apoptosis in human Huh-7 cells assessed as necrotic cells at 10 uM incubated for 24 hrs by FITC Annexin V/propidium iodide staining based flow cytometry analysis (reference value: 0.401%); type: functional
[26] = system: Huh-7; test: Induction of cell cycle arrest in human Huh-7 cells assessed as accumulation of cells at G2 phase at 10 uM incubated for 24 hrs by FACscan flow cytometer analysis (reference value: 25.74%); type: functional
[27] = system: Huh-7; test: Induction of apoptosis in human Huh-7 cells assessed as viable cells at 10 uM incubated for 24 hrs by FITC Annexin V/propidium iodide staining based flow cytometry analysis (reference value: 92.6%); type: functional; details: read-out: Activity
[28] = system: Huh-7; test: Induction of cell cycle arrest in human Huh-7 cells assessed as accumulation of cells at G1 phase at 10 uM incubated for 24 hrs by FACscan flow cytometer analysis (reference value: 39.68%); type: functional
[29] = Hemolytic activity in mouse erythrocytes assessed as hemolysis at 80 uM incubated for 1.5 hrs by microplate reader assay; type: toxicity, cell-based; details: erythrocyte
[30] = target: T1, Histone deacetylase (Homo sapiens); test: Inhibition of HDAC in human HepG2 cells assessed as increase in histone H3 acetylation at 20 uM incubated for 24 hrs by Western blot analysis; type: cell-based
[31] = system: Huh-7; test: Induction of cell cycle arrest in human Huh-7 cells assessed as accumulation of cells at S phase at 10 uM incubated for 24 hrs by FACscan flow cytometer analysis (reference value: 41.7%); type: functional
[32] = target: T1, Histone deacetylase (Homo sapiens); test: Inhibition of HDAC in human Huh-7 cells assessed as increase in histone H3 acetylation at 20 uM incubated for 24 hrs by Western blot analysis; type: cell-based
[33] = Cytotoxicity activity against human HEK293T cells incubated for 48 hrs by CCK8 method; type: toxicity, cell-based, HEK-293T
[34] = Drug uptake in human Huh-7 cells assessed as cell penetration incubated for 24 hrs by flow cytometry analysis; type: ADME, cell-based; details: huh-7, 24 h
[35] = Drug localization in human Huh-7 cells incubated for 24 hrs by DAPI staining based microscopy analysis; type: ADME, cell-based; details: huh-7, 24 h
[36] = system: Huh-7; test: Induction of cell cycle arrest in human Huh-7 cells assessed as accumulation of cells at S phase at 2.5 uM incubated for 24 hrs by FACscan flow cytometer analysis (reference value: 41.7%); type: functional
[37] = system: Huh-7; test: Induction of apoptosis in human Huh-7 cells assessed as late apoptotic cells at 5 uM incubated for 24 hrs by FITC Annexin V/propidium iodide staining based flow cytometry analysis (reference value: 5.19%); type: functional
[38] = system: Huh-7; test: Induction of apoptosis in human Huh-7 cells assessed as necrotic cells at 5 uM incubated for 24 hrs by FITC Annexin V/propidium iodide staining based flow cytometry analysis (reference value: 0.401%); type: functional
[39] = system: Huh-7; test: Induction of cell cycle arrest in human Huh-7 cells assessed as accumulation of cells at sub G1 phase at 2.5 uM incubated for 24 hrs by FACscan flow cytometer analysis relative to control; type: functional
[40] = system: Huh-7; test: Induction of apoptosis in human Huh-7 cells assessed as viable cells at 5 uM incubated for 24 hrs by FITC Annexin V/propidium iodide staining based flow cytometry analysis (reference value: 92.6%); type: functional; details: read-out: Activity
[41] = system: Huh-7; test: Induction of cell cycle arrest in human Huh-7 cells assessed as accumulation of cells at G2 phase at 2.5 uM incubated for 24 hrs by FACscan flow cytometer analysis (reference value: 25.74%); type: functional
[42] = system: Huh-7; test: Induction of cell cycle arrest in human Huh-7 cells assessed as accumulation of cells at G1 phase at 2.5 uM incubated for 24 hrs by FACscan flow cytometer analysis (reference value: 39.68%); type: functional
[43] = system: Huh-7; test: Induction of apoptosis in human Huh-7 cells assessed as early apoptotic cells at 5 uM incubated for 24 hrs by FITC Annexin V/propidium iodide staining based flow cytometry analysis (reference value: 1.85%); type: functional

Row | Compound | IC50 [2] | IC50 [13] | IC50 [16] | IC50 [21] | inhibition [30] | inhibition [32] | Activity [22] | Activity [23] | Activity [24] | Activity [25] | Activity [26] | viability at 10 µM [27] | Activity [28] | Activity [31] | also measured
1 | CSCC[C@H](NC(=O)[C@H](CCCNC(=N)N)NC(=O)[C@H](CC(C)C)NC(=O)[C@H](CCCNC(=N)N)NC(=O)[C@H](CCSC)NC(=O)[C@H](CC(C)C)NC(=O)[C@H](CCCNC(=N)N)NC(=O)[C@H](CC(C)C)NC(=O)[C@H](CC(C)C)NC(=O)[C@H](CCCNC(=N)N)NC(C)=O)C(=O)N[C@@H](CC(C)C)C(=O)N[C@@H](CC(C)C)C(=O)N[C@@H](CCCNC(=N)N)C(=O)N[C@@H](CC(C)C)C(N)=O (Ac-RLLRLMRLRMLLRL-NH2) |  |  |  | > 100 µM | inactive | inactive | 3.93% | 6.9% | 21.1% | 5.39% | 6.43% | 69.6% | 58.07% | 36.8% | Activity [29]: Toxic
2 | O=C(CCCCCCC(=O)Nc1ccccc1)NO [VORINOSTAT] |  |  |  |  |  |  |  |  |  |  |  |  |  |  | Activity [36]: 25.97%; Activity [37]: 37%; Activity [38]: 9.35%; Activity [39]: 7.16%; viability at 5 µM [40]: 47.2%; Activity [41]: 18.46%; Activity [42]: 46.95%; Activity [43]: 6.4%

More lines, main results first:

Row | IC50 [2] | IC50 [13] | IC50 [16] | IC50 [21] | inhibition [30] | inhibition [32] | Compound | Activity [22] | Activity [23] | Activity [24] | Activity [25] | Activity [26] | viability at 10 µM [27] | Activity [28] | Activity [31] | also measured
3 | 54.6 µM | 43.7 µM | 52.2 µM | 0.31 µM |  |  | CC(=O)N[C@@H](CCCNC(=N)N)C(=O)N[C@@H](CC(C)C)C(=O)N[C@@H](CC(C)C)C(=O)N[C@@H](CCCNC(=N)N)C(=O)N[C@@H](CC(C)C)C(=O)N[C@H]1CC[S+](C)Cc2cccc(c2)C[S+](C)CC[C@@H](C(=O)N[C@@H](CC(C)C)C(=O)N[C@@H](CC(C)C)C(=O)N[C@@H](CCCNC(=N)N)C(=O)N[C@@H](CC(C)C)C(=O)NCCCCCC(=O)NO)NC(=O)[C@H](CCCNC(=N)N)NC(=O)[C@H](CC(C)C)NC(=O)[C@H](CCCNC(=N)N)NC1=O (some centres undefined) |  |  |  |  |  |  |  |  | Activity [1]: Active; Activity [3]: 51.86%; Activity [4]: 2.98%; Activity [5]: Active; Activity [6]: 33.25%; Activity [7]: 17.34%; Activity [8]: 3.89%; Activity [9]: 4.97%; Activity [10]: 18.2%; inhibition [11]: Active; viability at 20 µM [12]: 73%; Activity [14]: Active; Activity [15]: Active; inhibition [17]: Active; Stability [18]: Stable; Activity [19]: Active; Activity [20]: Active
4 |  |  |  | > 100 µM |  |  | CC(=O)N[C@@H](CCCNC(=N)N)C(=O)N[C@@H](CC(C)C)C(=O)N[C@@H](CC(C)C)C(=O)N[C@@H](CCCNC(=N)N)C(=O)N[C@@H](CC(C)C)C(=O)N[C@H]1CC[S+](C)Cc2cccc(c2)C[S+](C)CC[C@@H](C(=O)N[C@@H](CC(C)C)C(=O)N[C@@H](CC(C)C)C(=O)N[C@@H](CCCNC(=N)N)C(=O)N[C@@H](CC(C)C)C(=O)O)NC(=O)[C@H](CCCNC(=N)N)NC(=O)[C@H](CC(C)C)NC(=O)[C@H](CCCNC(=N)N)NC1=O (some centres undefined) |  |  |  |  |  |  |  |  | 
5 | 42.6 µM | 28.1 µM | 34 µM | 0.446 µM | Active | Active | CSCC[C@H](NC(=O)[C@H](CCCNC(=N)N)NC(=O)[C@H](CC(C)C)NC(=O)[C@H](CCCNC(=N)N)NC(=O)[C@H](CCSC)NC(=O)[C@H](CC(C)C)NC(=O)[C@H](CCCNC(=N)N)NC(=O)[C@H](CC(C)C)NC(=O)[C@H](CC(C)C)NC(=O)[C@H](CCCNC(=N)N)NC(C)=O)C(=O)N[C@@H](CC(C)C)C(=O)N[C@@H](CC(C)C)C(=O)N[C@@H](CCCNC(=N)N)C(=O)N[C@@H](CC(C)C)C(=O)NCCCCCC(=O)NO (Ac-RLLRLMRLRMLLRL[Ahx]-{NHOH}) | 5.46% | 10.82% | 16.5% | 3.03% | 9.53% | 75% | 47.63% | 37.76% | IC50 at 48 h [33]: 39.8 µM; Drug uptake [34]: Active; Drug uptake [35]: Active

From ChEMBL document CHEMBL5252625, “Development of sulfonium tethered peptides conjugated with HDAC inhibitor to improve selective toxicity for cancer cells” (Bioorg Med Chem, 2023)
